Source: patent publication US9079854B2 (priority 2007, dated 2015)

How the values were obtained:
[1] = tested on: tactile allodynia in a spinal nerve ligation neuropathic pain model; assay: Lumbar 5/6 spinal nerve ligation neuropathic pain model, mechanical paw withdrawal threshold (von Frey); type: in vivo, rat; conditions: pretreatment with 5 mg/kg i.p.; rats
Description: Neuropathic pain was induced following the methods of Kim and Chung. Kim S H, Chung J M. An experimental model for peripheral neuropathy produced by segmental spinal nerve ligation in the rat. Pain 1992; 50:355-63. Rats were anesthetized and placed prone under a microsurgical apparatus. A midline incision was made on the back, and the right paraspinal muscles were separated from the spinous processes at the L4-S2 levels. The L6 transverse process was carefully removed, and the L4/5 spinal nerves were identified. The L5 nerve was tightly ligated with a 6-0 silk suture. The right L6 spinal nerve was then located just caudal and medial to the sacroiliac junction and tightly ligated with a silk suture.
Two weeks later after spinal nerve ligation, Intrathecal catheters (PE-10 tubing) was inserted into the rats while they were anesthetized with isoflurane, as described by Yaksh and Rudy. Yaksh T L, Rudy T A. Chronic catheterization of the spinal subarachnoid space. Physiology & Behavior 1976; 17:1031-6. A midline incision was made on the back of the neck. The muscle was freed at the attachment to the skull exposing the cisternal membrane. The membrane was opened with a stab blade and an 8.5 cm polyethylene (PE-10) catheter was then inserted through the cisternal opening, and passed carefully and caudally into the intrathecal space at the L1-L3 spinal segments. The end of the catheter was tunneled through the subcutaneous space over the frontal bones, flushed with 10 μl saline, and then plugged with a short length of wire Animal testing was performed 5-7 days after intrathecal catheter placement.
To assess mechanical allodynia, the mechanical paw withdrawal threshold was measured with a series of von Frey hairs (range 0.4-15 g). Rats were placed in elevated Perspex enclosures (28 cm×15 cm×18 cm) with wire mesh bases and given 15-20 min to acclimatize to the testing environment. Rats will be allowed to acclimatize for 30 min in a clear plastic cage with a wire mesh bottom. The calibrated von Frey filament fibers were applied to the hindpaw briefly for 6 seconds to determine the paw withdrawal threshold before and after drug injection (intraperitoneally or intrathecally). A series of von Frey filaments with exponentially incremental stiffness (0.4, 0.7, 1.2, 2.0, 3.6, 5.5, 8.5 and 15 g) were used to measure the 50% threshold for hindpaw withdrawal in awake, unrestrained rats. Chaplan S R, Bach F W, Pogrel J W, Chung J M, Yaksh T L. Quantitative assessment of tactile allodynia in the rat paw. Journal of Neuroscience Methods 1994; 53:55-63. Brisk paw withdrawal from the pressure of a filament gently bent against the plantar paw was defined as a positive response, and absence of withdrawal within 6 s as a negative response. Filaments were touched to the hindpaw in sequential ascending or descending order until the threshold of response is crossed (allowing about 10 s between each increment of the von Frey filaments). Each time the threshold is crossed, the direction of stimulus presentation was reversed and the procedure will be resumed. Four responses were collected after the first threshold detection, and the 50% withdrawal thresholds were interpolated. In cases where response thresholds fell outside the range of detection, 15.00 and 0.25 g were, respectively, assigned for continuous negative or positive responses to the limit of stimuli.
All surgical procedures were performed under deep isoflurane anesthesia in 100% O2. The spinal nerve ligation (SNL) was performed as described previously. Kim, S. H., et al., An Experimental Model for Peripheral Neuropathy Produced by Segmental Spinal Nerve Ligation in the Rat, Pain, 1992, 50:355-63. Briefly, a midline incision above the lumbar spine exposed the left L6 transverse process. The process was then removed, the left L5 and L6 spinal nerves were isolated, and both nerves were tightly ligated with 6-0 silk. […]

[2] = biological target: T1, human CB2 (hCB2) receptor (Homo sapiens, UniProt P34972); assay: CB2 binding assay, competitive binding of [3H]WIN 55212-2; conditions: read-out: % inhibition hCB2 receptor, at 1 μM; specific binding of [3H]-WIN55212-2; CHO membranes
T1 construct: expressed in transfected cells; host or cells: CHO (Chinese hamster ovary) cells, membranes
T1 sequence (P34972 whole entry): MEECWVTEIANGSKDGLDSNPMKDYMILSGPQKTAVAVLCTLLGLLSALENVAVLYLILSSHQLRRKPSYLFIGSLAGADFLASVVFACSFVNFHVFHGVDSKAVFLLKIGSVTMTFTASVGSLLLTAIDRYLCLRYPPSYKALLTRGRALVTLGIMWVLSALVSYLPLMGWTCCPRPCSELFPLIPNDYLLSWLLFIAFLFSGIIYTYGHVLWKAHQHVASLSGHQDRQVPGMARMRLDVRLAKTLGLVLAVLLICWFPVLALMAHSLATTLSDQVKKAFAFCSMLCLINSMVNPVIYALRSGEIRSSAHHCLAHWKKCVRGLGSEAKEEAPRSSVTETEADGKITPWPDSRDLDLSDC
Description: Cell membrane homogenates (15 μg protein) are incubated for 120 min at 37° C. with 0.8 nM [^3H]WIN 55212-2 (the reference standard [Munro, 1993 #1321]) in the absence or presence of the test compound in a buffer containing 50 mM HEPES/Tris HCL (pH 7.4), 5 mM MgCl2, 2.5 mM EGTA, and 0.1% BSA. Nonspecific binding is determined in the presence of 10 μM WIN 55212-2. After being incubated, the samples are filtered rapidly under vacuum through glass fiber filters (GF/B; Packard) presoaked with 0.3% PEI and rinsed several times with ice-cold buffer containing 50 mM Tris HCl (pH 7.4) and 0.5% BSA using a 96-sample cell harvester (Unifilter; Packard). The filters are dried then counted for radioactivity in a scintillation counter (Topcount; Packard) using a scintillation cocktail (Microscint 0; Packard). The results are expressed as a percentage of the inhibition of the control radioligand-specific binding. The reference standard compounds are tested in each experiment at several concentrations to obtain a competition curve from which its IC50 is calculated.
(§1) […] [^3H]-CP55940 at a concentration of 0.5 nM and [^3H]-WIN55212 at a concentration of 0.8 nM were used as radioligands for hCB1 and hCB2 assays, respectively. The results are expressed as a percent inhibition of control specific binding. Compounds which displaced the radioligand by more than 50% for either hCB1 or hCB2 receptors were arbitrary chosen for functional activity determination.

[3] = biological target: T2, hCB2 receptor (Homo sapiens, UniProt P34972); assay: CB2 functional assay, [35S]GTP-γ-S binding; type: biochemical; conditions: for EC50 / Emax: Table 9; for EC50: mean of two determinations, read-out: [35S]GTP-γ-S hCB2 EC50 (nM ± SEM); for Emax: relative to the efficacy of CP 55,940; for Emax at 3 µM: read-out: [35S]GTP-γ-S hCB2 Emax (%), Table 9 footnote a: Efficacy determined at 3 μM, relative to CP 55,940
T2 construct: purchased ES-111-MG; host or cells: CHO membrane extracts
T2 sequence (P34972 whole entry): as above
Description: (§2) A dose response curve was generated at eight concentrations in duplicate on CB1 and CB2 in light of reference agonists.
(§3) Membranes (CB1, ES-110-MG or CB2, ES-111-MG) are mixed with GDP (volume:volume) and incubated for at least […] on ice. In parallel, […] are mixed with the beads (volume:volume) just before starting the reaction. The following reagents are successively added in the wells of an Optiplate: 50 μl of ligand, 20 μl of the membranes:GDP mix, 10 μl of assay buffer for agonist testing and 20 μl of the […]: beads mix. The plates are covered with a topseal, shaken on an orbital shaker for 2 min, and then incubated between 30 to 60 min at room temperature. Then the plates are centrifuged for 10 min at 2000 rpm, incubated at room temperature between 1 to 4 hours and counted for 1 min with a PerkinElmer TopCount reader.
(§4) Functional activity for acyl hydrazone was evaluated using [^35S]GTP-γ-S assay in CHO membrane extracts expressing recombinant hCB1 receptor or hCB2 receptor. The assay relies on the binding of [^35S]GTP-γ-S, a radiolabeled nonhydrolyzable GTP analogue, to the G protein upon binding of an agonist of the G-protein-coupled receptor. In this system, agonists stimulate [^35S]GTP-γ-S binding whereas neutral antagonist have no effect and inverse agonists decrease [^35S]GTP-γ-S basal binding.
(§5) CB1 and CB2 assay data are presented as the mean of two determinations. […] For replicate determinations, the maximum variability tolerated in the test was of ±20% around the average of the replicates.

[4] = biological target: T3, human CB1 (hCB1) receptor (Homo sapiens, UniProt P21554); assay: CB1 binding assay, competitive binding of [3H]CP 55940; conditions: at 1 μM; specific binding of [3H]-CP55940; CHO membranes
T3 construct: expressed in transfected cells; host or cells: CHO (Chinese hamster ovary) cells, membranes
T3 sequence (P21554 whole entry): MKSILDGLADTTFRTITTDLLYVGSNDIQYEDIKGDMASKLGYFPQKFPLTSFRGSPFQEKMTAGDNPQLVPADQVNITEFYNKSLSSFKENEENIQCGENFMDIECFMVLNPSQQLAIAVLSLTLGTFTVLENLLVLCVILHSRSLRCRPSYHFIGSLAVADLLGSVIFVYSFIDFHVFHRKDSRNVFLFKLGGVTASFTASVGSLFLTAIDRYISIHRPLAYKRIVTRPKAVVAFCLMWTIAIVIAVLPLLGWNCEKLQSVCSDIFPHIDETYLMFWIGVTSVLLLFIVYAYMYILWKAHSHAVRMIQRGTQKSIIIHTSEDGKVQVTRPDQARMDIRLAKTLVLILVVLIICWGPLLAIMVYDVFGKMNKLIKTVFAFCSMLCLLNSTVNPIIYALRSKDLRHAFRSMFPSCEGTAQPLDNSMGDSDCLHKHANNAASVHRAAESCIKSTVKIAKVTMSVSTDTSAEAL
Description: Cell membrane homogenates (25 μg protein) are incubated for 120 min at 37° C. with 0.5 nM [^3H]CP 55940 (the reference standard [Rinaldi-Carmona, 1996 #1320]) in the absence or presence of the test compound in a buffer containing 50 mM Tris HCl (pH 7.4), 5 mM MgCl2, 2.5 mM EDTA, and 0.3% bovine serum albumin (BSA). […]
as §1

[5] = biological target: T4, CB1 (Homo sapiens, UniProt P21554); assay: CB1 functional assay, [35S]GTP-γ-S binding; type: biochemical; set-up: purchased ES-110-MG; host or cells: CHO membrane extracts; conditions: for EC50 / Emax: Table 9; for EC50: mean of two determinations, read-out: [35S]GTP-γ-S hCB1 EC50 (nM ± SEM); for Emax: relative to the efficacy of CP 55,940; for Emax at 3 µM: read-out: [35S]GTP-γ-S hCB1 Emax (%), Table 9 footnote a: Efficacy determined at 3 μM, relative to CP 55,940
T4 sequence (P21554 whole entry): as above
Description: as §2, §3, §4, §5

[6] = biological target: T4, CB1; assay: CB1 antagonist functional assay; type: biochemical; conditions: data not shown

| SMILES | effect of pretreatment on the anti-allodynic effect of Example 6 [1] | inhibition at 1 µM [2] | EC50 [3] | Emax [3] | inhibition at 1 µM [4] | EC50 [5] | Emax [5] | functional activity on CB2 receptor (in words) ([3]; [35S]GTP-γ-S) | Emax at 3 µM [3] | functional activity on CB1 receptor (in words) ([5]; [35S]GTP-γ-S) | Emax at 3 µM [5] | antagonist activity in a CB1 antagonist functional assay [6] |
| --- | --- | --- | --- | --- | --- | --- | --- | --- | --- | --- | --- | --- |
| COc1ccc(C(=O)c2c(C)n(CCN3CCOCC3)c3cc(I)ccc23)cc1 [AM630, reference compound] | antagonized the effects of compound of Example 6 | – | – | – | – | – | – | – | – | – | – | – |
| CCCCCCN1C(=O)/C(=N\NC(=O)OC(C)(C)C)c2ccccc21 [Example 14, tert-butyl (2Z)-2-(1-hexyl-2-oxo-1,2-dihydro-3H-indol-3-ylidene)hydrazinecarboxylate] | – | 82.3 ± 0.8% | 22.4 ± 1.3 nM | 43.4% | 85.1 ± 3.3% | 937.1 ± 1.2 nM | 92% | – | – | – | – | – |
| CCCCCCN1C(=O)/C(=N/NC(=O)OC(C)(C)C)c2ccccc21 [Example 15, tert-butyl (2E)-2-(1-hexyl-2-oxo-1,2-dihydro-3H-indol-3-ylidene)hydrazinecarboxylate] | – | 27 ± 3.7% | – | – | 75 ± 0.1% | – | – | failed to exhibited functional activity | 23.4% | failed to exhibited functional activity | – | – |
| CCCCCCN1C(=O)/C(=N\NC(=O)c2ccc(OC)cc2)c2ccccc21 [Example 17, N′-[(3Z)-1-hexyl-2-oxo-1,2-dihydro-3H-indol-3-ylidene]-4-methoxybenzohydrazide] | – | 56 ± 5.7% | 143 ± 2.6 nM | 49.5% | 81.7 ± 1.1% | 852 ± 1.2 nM | 71% | – | – | – | – | – |
| CCCCCCN1C(=O)/C(=N\NC(=O)c2cccc3ccccc23)c2ccccc21 [Example 19, N′-[(3Z)-1-hexyl-2-oxo-1,2-dihydro-3H-indol-3-ylidene]-1-naphthohydrazide] | – | 69.8 ± 4% | 202.2 ± 2 nM | 30.5% | > 80% | – | – | – | – | – | 12.9% | failed to be antagonist |
| CCCCCCN1C(=O)/C(=N\NC(=O)C23CC4CC(CC(C4)C2)C3)c2ccccc21 [Example 20, N′-[(3Z)-1-hexyl-2-oxo-1,2-dihydro-3H-indol-3-ylidene]adamantane-1-carbohydrazide] | – | > 85% | – | – | > 85% | – | – | – | 32.1% | – | 34.6% | failed to be antagonist |
| CCCCN1C(=O)/C(=N\NC(=O)c2ccccc2)c2ccccc21 [Example 22, N′-[(3Z)-1-(1-butyl)-2-oxo-1,2-dihydro-3H-indol-3-ylidene]benzohydrazide] | – | 70 ± 2.4% | 40.1 ± 1.5 nM | 98.9% | 86 ± 2.4% | – | – | – | – | – | 69% | – |
| CCCCCN1C(=O)/C(=N\NC(=O)c2ccccc2)c2ccccc21 [Example 23, N′-[(3Z)-1-(1-pentyl)-2-oxo-1,2-dihydro-3H-indol-3-ylidene]benzohydrazide] | – | 80 ± 0.9% | 240 ± 3.2 nM | 68.5% | 95 ± 0.9% | 314.1 ± 1.6 nM | 95.1% | – | – | – | – | – |
| O=C(N/N=C1\C(=O)N(CC2CCCCC2)c2ccccc21)c1ccccc1 [Example 25, N′-[(3Z)-1-(cyclohexylmethyl)-2-oxo-1,2-dihydro-3H-indol-3-ylidene]benzohydrazide] | – | 100 ± 0.4% | 9.8 ± 1.1 nM | 65.7% | 99 ± 1.1% | 62.3 ± 1.3 nM | 99% | – | – | – | – | – |
| O=C(N/N=C1\C(=O)N(Cc2ccc(Cl)cc2)c2ccccc21)c1ccccc1 [Example 26, N′-[(3Z)-1-(4-chlorobenzyl)-2-oxo-1,2-dihydro-3H-indol-3-ylidene]benzohydrazide] | – | 22 ± 1.6% | 131 ± 1.7 nM | 39.8% | 94.5 ± 0.8% | 895.6 ± 1.2 nM | 72% | – | – | – | – | – |
